Experiment [1] deals with basophils. Description: Basophil Activation Test (BAT), CD63, anti-FcεR stimulated blood from healthy donors. The class given is cell-based, human. The conditions noted are these: for EC50: Homo sapiens. Here is the method:
(§1) The BAT was conducted as set forth in Santos (2021) Allergy, 76:2420-2432. Blood from six healthy donors was drawn and Compound 128 was added at various concentrations (10 μM, 3.16 μM, 1 μM, 0.3 μM, 0.1 μM, 0.03 μM, or 0 μM). Blood samples were gently rocked at room temperature for 2 hours, 24 hours, or 48 hours. The BAT assay using the Flow Cast Basophil Activation Kit (Buhlmann Diagnostics; Catalog #B-CCR-STCON) was then conducted following manufacturer instructions by (1) stimulating the blood with anti-FcεR stimulation control in stimulation buffer with IL-3 and staining cells for CCR3 and CD63 for 15 minutes at 37° C., (2) lysing red blood cells and fixing cells with Lysing Reagent at room temperature for 10 minutes, (3) washing cells with Wash Buffer, and (4) acquiring data on a flow cytometer. Activated basophils were defined as CCR3+, low side scatter and CD63+. Percent of activated basophils was calculated as number of activated basophils over the total number of basophils. A four-parameter logistic regression was applied to determine the EC50 and EC90.

Experiment [2] concerns basophils. Description: Comparison of BTK inhibitors by BAT (CD63 and CD203c). Type of experiment: cell-based, human. Conditions: concentration of 1 μM; 2 hours; blood from a healthy donor. On the procedure:
as §1, with “The” for “The BAT was conducted as set forth in Santos (2021) Allergy, 76:2420-2432. Blood from six healthy donors was drawn and Compound 128 was added at various concentrations (10 μM, 3.16 μM, 1 μM, 0.3 μM, 0.1 μM, 0.03 μM, or 0 μM). Blood samples were gently rocked at room temperature for 2 hours, 24 hours, or 48 hours. The”
Blood samples were gently rocked at room temperature for 2 hours. […] Activated basophils were also defined as CCR3+, low side scatter and CD203c+.

Experiment [3] concerns IL-8, MCP-1, MIP-1a, IL-13 and IL-10. Description: Antigen-induced cytokine production in ISM-like and healthy mast cell conditions. Type of experiment: cell-based, human. The conditions noted are these: ISM-like mast cells; treated two hours, antigen four hours. On the procedure:
Human mast cells were derived from bone marrow CD34+ cells from six healthy donors for up to eight weeks by culturing CD34+ cells in StemSpan SFEM II (Stem Cell Technologies) supplemented with stem cell factor (SCF; 100 ng/mL; R&D System), IL-6 (R&D Systems), IL-3 (R&D Systems) and 1% penicillin/streptomycin (P/S; Gibco) for the first 10 days and in StemSpan SFEM II supplemented with SCF and IL-6 and 1% P/S for the remaining time in culture. […] Supernatant was collected and histamine levels were measured using a Histamine ELISA kit (Eagle Biosciences). […] Percent of activated mast cells was calculated as number of activated mast cells over the total number of mast cells.
Human mast cells were differentiated from bone marrow CD34+ cells from two healthy donors, cultured and sensitized in ISM-like and healthy mast cell conditions as set forth in Example 4, treated with Compound 128 for two hours and stimulated with antigen for four hours. Supernatant was collected and cytokine levels were measured using the BD Cytometric Bead Array (CBA) human soluble protein master buffer kit (Becton Dickinson) and BD CBA human soluble protein flex sets for IL-8, MCP-1, MIP-1a, IL-13 and IL-10 (Becton Dickinson). […]

The test system of experiment [4] is basophils. Description: BAT (CD63) on blood of dosed ISM patients. The class given is in vivo, human. On the procedure:
as §1, with “EC90. […]” for “EC90.”
The BAT assay measuring CD63 used the Flow Cast Basophil Activation Kit method and percent activated basophils were calculated as described in Example 1. Percent inhibition of CD63 activation was calculated as (100−(Sample condition−Unstimulated DMSO control)/(Stimulated DMSO control−Unstimulated DMSO control)×100).

The subject of a further experiment is mast cells. The experiment can be described thus: Phosphorylation and degranulation markers in antigen-stimulated mast cells grown with chronic SCF (FIG. 21). Type of experiment: cell-based. Conditions: 0.1-0.6 μM, antigen 15 minutes. On the procedure: Histamine release, CD63 expression, CD203c expression, pBTK (Y223) levels, pP38 (T180/Y182) levels, pPLCg1 (S1248) levels, pERK (T202/Y204) levels, and pS6 (S235/236) levels are shown. Mast cells were grown with continuous (chronic) exposure to SCF and then stimulated with antigen (Ag) for 15 minutes, leading to phosphorylation of multiple kinases, including pBTK, pPLCγ1, pP38, pERK, and pS6 ribosome. This stimulation increases degranulation markers, including CD63, CD203c, and histamine release.

The structures appear in SMILES notation. Read-outs that look alike come from different tables or passages of the source.

Consider `C=CC(=O)N1CCC(F)(CNc2ncnc(N)c2-c2ccc(Oc3ccccc3)cc2)CC1` [Compound 128, 1-(4-(((6-amino-5-(4-phenoxyphenyl)pyrimidin-4-yl)amino)methyl)-4-fluoropiperidin-1-yl)prop-2-en-1-one], for which the EC50 (in general, the concentration that produces a half-maximal response) is 500 nM in the experiment on basophils [1] (2-hour drug exposure, blood from six healthy donors, read-out: average EC50, inhibition of anti-FcεR induced basophil activation (CD63+)); 120 nM in the experiment with basophils [1] (24-hour drug exposure, blood from six healthy donors, read-out: average EC50, inhibition of anti-FcεR induced basophil activation (CD63+)); 100 nM with basophils [1] (48-hour drug exposure, blood from six healthy donors, read-out: average EC50, inhibition of anti-FcεR induced basophil activation (CD63+)); 120 nM in the experiment with basophils [1] (24 hours exposure, Example 2, read-out: average EC50 (n=4), CD63 normalized to DMSO control in CCR3+ basophils). Moreover, in the experiment with basophils [1] (after 24 hours drug exposure), the “potency increase of basophil activation inhibition” value is reported as “approximately 4 fold”. For the same compound, the “effect on basophil activation (CD63+, CD203c+)” value in the experiment on basophils [2] is “fully inhibits basophil activation”. In addition, in experiment [3], the IgE-mediated cytokine production result was “inhibited”. Further, in the experiment on basophils [4] (ISM patients, 100 mg or 150 mg BID), the “inhibition of basophil activation” value was “effective in inhibiting basophil activation”. Moreover, in the experiment with basophils [4] (ISM patients, 50, 75, 100 or 150 mg BID), the “percent inhibition of CD63 activation of basophils, dose dependence” value is reported as “greater inhibition of basophil activation is achieved in ISM patients with greater dosing”. Moreover, the “phosphorylation (pBTK, pPLCγ1, pP38, pERK, pS6) and degranulation (CD63, CD203c, histamine)” value with mast cells was “decrease to near basal levels”.

Values taken from US12653827B2, “Methods of treating indolent systemic mastocytosis” (Telios Pharma Inc., priority 2024, dated 2026).
